Literature values in patent US9375436B2, “Androgen treatment in females” (priority 2004, dated 2016).

Test system: older mice
Conditions: cited from earlier work

Q: For `COC1=C(OC)C(=O)C(C/C=C(\C)CC/C=C(\C)CC/C=C(\C)CC/C=C(\C)CC/C=C(\C)CC/C=C(\C)CC/C=C(\C)CC/C=C(\C)CC/C=C(\C)CCC=C(C)C)=C(C)C1=O` [CoQ10, coenzyme Q10], which oocytes numbers is on record?
A: increases oocytes numbers
